Columns and labels:
Male, 51 = assay: Uchida-Kraepelin test (UKT), serial calculation test of mental fatigue; assay type: in vivo, human; settings: one subject; for increase of mean performance during the first 15-minutes of UKT / mental fatigue (gradual decrease in performance) during the second 15-minutes of UKT: 200 mg of paraxanthine or 200 ng of caffeine
Procedure: […], consumed 200 mg of paraxanthine or […] or placebo, separated by one-week wash-out, prior to performing a serial calculation test, the Uchida-Kraepelin test (UKT), that is designed to measure mental fatigue. The test has been standardized and is widely used in clinical psychology, psychiatry, and occupational mental health practice. In this test, a subject is instructed to perform serial calculation of random numbers printed on a paper for 15 minutes. After a 5-minute rest, another 15 minutes of calculations are performed. The test subject is instructed to compute as many calculations as possible. Performance is assessed by 1-minute intervals.

trained runners [1] = assay: Berg-Wisconsin Card Sorting Test (BCST) before and after a mentally fatiguing 10-km run; assay type: in vivo, human; settings: 200 mg oral; after 10-km run compared to pre-exhaustive exercise
Procedure: (§1) Trained runners from local running and triathlon clubs and races were recruited to participate in this study. Cognitive performance was assessed prior and after a mentally fatiguing endurance run. Eligibility criteria included healthy trained runners or triathletes between 18-40 years of age, current (>6 months) history of run training, and documented evidence that they averaged 8 minute/mile or less running pace during a recent competition (e.g., completing a 5-km road race or marathon). Qualified runners were invited to attend a familiarization session which provided an overview of the study and participants informed consent to participate in the study. A total of 32 individuals responded to study advertisements and were assessed for eligibility, 28 completed a familiarization session, 13 met eligibility requirements, agreed to participant in the study and were randomized into treatments. 1 subject dropped out of the study due to not complying with the study protocol. 12 subjects (11 males, 1 female) ultimately finished the trial. Volunteers visited the lab a total of five times including one familiarization session and four experimental sessions. During the familiarization session, participants were explained the study protocol, provided informed consent, answered a medical questionnaire, and had height, weight, resting heart rate, and resting blood pressure. Males then had body composition determined using dual energy X-ray absorptiometry (DXA) while females took a urine pregnancy test prior to the DXA scan to verify they were not pregnant. Participants then took each cognitive function test three times to familiarize them to the tests and establish test reliability. Volunteers practiced running on the treadmill to be used in the study at race pace. Once completed, the participants then performed a graded maximal cardiopulmonary (VO2 peak) treadmill test to determine peak heart rate and aerobic capacity. Participants were also asked to maintain usual eating habits and avoid new dietary supplements for the duration of the study. Participants were also asked to prepare for each testing session as they would a 10-km road race and refrain from vigorous physical activity, alcohol intake, and over-the-counter medications for 24 hours as well as fast for 8-12 hours prior to reporting to the lab. […] Upon arriving at the lab, participants had weight, resting heart rate, and blood pressure determined. Participants then completed a side effects questionnaire, performed two cognitive function tests, the Psychomotor Vigilance Task Test (PVTT), a test that objectively assesses fatigue-related changes in alertness, and the Berg-Wisconsin Card Sorting Test (BCST), donated a fasting blood sample, and then ingested 1 of 4 randomly assigned oral supplements (PRE). Supplements were administered in a double blind, randomized, and crossover manner using a Balanced Latin Square method to counterbalance the order of treatment administration. Treatments included (1) 400 mg of placebo (PL, wheat flour, Shandong Bailong Chuangyuan Bio-tec Co. Ltd., Dezhou, China); (2) 200 mg of PL+200 mg of Caffeine (CSPC Innovation Pharmaceutical Co. Ltd., Shi Jiazhuang, China); (3) 200 mg of PL+200 mg of […], Ingenious Ingredients, L.P. Lewisville, Tex., USA) or (4) 200 mg CA+200 mg of PX (CA+PX). Supplements were prepared using good manufacturing practices and certified for content. Supplements were the same size and appearance and packaged in generically labeled bottles for administration in a double-blind manner. Participants ingested one capsule with 8-ounces of water of the assigned treatment. Participants then rested for 15-minutes and repeated these tests. Volunteers then performed a 10-km run at their self-determined pace. Heart rate was obtained every kilometer during the run. Once completed, participants donated a venous blood sample. Participants then completed the cognitive function tests and the side effects questionnaire. […]

BDNF = BDNF levels in young and old rats after paraxanthine supplementation; assay type: in vivo
catalase = assay: Catalase levels in young and old rats after paraxanthine supplementation; assay type: in vivo
glutathione = assay: Glutathione levels in young and old rats after paraxanthine supplementation; assay type: in vivo
trained runners [2] = assay: Psychomotor Vigilance Task Test (PVTT) before and after a mentally fatiguing 10-km run; assay type: in vivo, human
Procedure: as §1

[3] = old rats, high-dose paraxanthine group
[4] = old rats, low-dose paraxanthine group
[5] = young rats, high-dose paraxanthine group
[6] = young rats, low-dose paraxanthine group
[7] = 200 mg oral, compared to pre-exhaustive exercise

## Cn1c(=O)c2c(ncn2C)n(C)c1=O [caffeine, reference compound]
Male, 51
  increase of mean performance during the first 15-minutes of UKT: 7%
  mental fatigue (gradual decrease in performance) during the second 15-minutes of UKT: failed to prevent metal fatigue
Trained runners [1]
  increase in number of correct responses in the BCST: did not change
  increase in number of errors in the BCST: 19.4%
  increase in number of preservative errors (PAR rules) in the BCST: 23.3%
  increase in number of preservative errors in the BCST: 15.9%

## Cn1c(=O)[nH]c2ncn(C)c2c1=O [paraxanthine]
BDNF; [3]
  BDNF levels: 863.40 ± 35.21 pg/mL
BDNF; [4]
  BDNF levels: 776.40 ± 18.54 pg/mL
BDNF; [5]
  BDNF levels: 939.15 ± 42.34 pg/mL
BDNF; [6]
  BDNF levels: 828.05 ± 35.03 pg/mL
catalase; [3]
  catalase levels: 36.84±1.68 U/mL
catalase; [4]
  catalase levels: 29.34±1.50 U/mL
catalase; [5]
  catalase levels: 38.91±2.65 U/mL
catalase; [6]
  catalase levels: 30.24±1.58 U/mL
Male, 51
  increase of mean performance during the first 15-minutes of UKT: 15%
  mental fatigue (gradual decrease in performance) during the second 15-minutes of UKT: prevented mental fatigue
Male, 51; 200 mg of paraxanthine
  increase of mean performance during the second 15-minutes of UKT: 21%
glutathione; [3]
  glutathione levels: 27.49 ± 0.84 µg/mL
glutathione; [4]
  glutathione levels: 22.27 ± 1.00 µg/mL
glutathione; [5]
  glutathione levels: 34.41 ± 1.97 µg/mL
glutathione; [6]
  glutathione levels: 24.04 ± 1.74 µg/mL
Trained runners [2]; 200 mg oral each, PVTT
  greater improvement in reaction time compared to caffeine, trial 2: 25%
  greater improvement in reaction time compared to caffeine, trial 10: 44%
  greater improvement in reaction time compared to caffeine, trial 20: 12%
Trained runners [2]; [7]
  improvement of reaction time in the PVT Test, early trials (trial 2): 7.3%
  improvement of reaction time in the PVT Test, late trials (trial 20): 10.9%
  improvement of reaction time in the PVT Test, middle trials (trial 10): 10.9%
Trained runners [1]
  increase in number of correct responses in the BCST: 5.7%
  reduction in number of errors in the BCST: 1.5%
  reduction in number of preservative errors (PAR rules) in the BCST: 10.6%
  reduction in number of preservative errors in the BCST: 4.6%

From patent publication US20220305020A1, “THE USE OF PARAXANTHINE TO REDUCE EXERCISE-INDUCED MENTAL FATIGUE” (Ingenious Ingredients, LP, priority 2021, published 2022)
